The record followed here is US6177438A, “Morphinan derivatives and pharmaceutical use thereof” (priority 1993, dated 2001).

In data set [1] the test system is cultured nerve cells (cerebral cortex). Particulars: 10 mM glutamic acid, 24 hours.
The test system is the same in data set [2]. Briefly: cells. To be noted: Rattus norvegicus, Cerebral cortex neuron, 24 h, read-out: ED50 (protection against glutamic acid toxicity).
Data set [3] relates to acetic acid-induced writhing in ddy mice. Briefly: animal or person. It counts as in vivo, 5 week old ddy mice. Particulars: for ED50: Mus musculus, sc, s.c. 15 minutes before acetic acid, read-out: ED50. The procedure: 5 week old ddy mice were used in this test. After intraperitoneal administration of 0.1 ml of 0.6% aqueous acetic acid per 10 g of body weight, the number of writhing reactions that occurred in 10 minutes starting 10 minutes after administration was evaluated for the indicator. The test drug was administered subcutaneously into the backs of the animals 15 minutes before administration of acetic acid.

For data set [4], the system named is extracted mouse vas deferens preparation. Briefly: Opioid activity test using an extracted mouse vas deferens preparation (suppression of electrically induced contractions). Particulars: electrical stimulus 0.1 Hz, 37° C. Also on record: species or system male ddy mouse. In outline: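 Male ddY mouse vas deferens in Krebs-Henseleit at 37° C, 5% CO2/95% O2, field-stimulated at 0.1 Hz, 5.0 ms; isometric contractions recorded. After adding naloxone, NTI or norBNI, test compound was added cumulatively after ~20 min; Ke derived from the difference in agonist efficacies.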

The next data set concerns the target T1, μ receptor (Mus musculus, UniProt P42866).
T1 construct: naloxone as mu antagonist (printed 'agonist')
Briefly: Opioid activity test using an extracted mouse vas deferens preparation, Ke with naloxone. Particulars: naloxone added. The arrangement: species or system male ddy mouse.

The target in a further data set is T2, δ receptor (Mus musculus, UniProt P32300).
T2 construct: The vas deferens extracted from the animal was suspended in a Magnus tube; from tissue; host or cells: mouse (male ddy) vas deferens
The arrangement: species or system male ddy mouse.

The next data set has as its target T3, κ receptor (Mus musculus, UniProt P33534).
T3 construct: from tissue; host or cells: mouse (male ddy) vas deferens
Briefly: Opioid activity test using an extracted mouse vas deferens preparation, Ke with norBNI. Also on record: species or system male ddy mouse. Particulars: for receptor selectivity of agonist (κ): in words; for Ke, norBNI: κ, norBNI added.

Data set [5] can be described thus: Diuretic action (urine output for 5 hours after physiological saline loading in rats). To be noted: Rattus norvegicus, sc, 5 hours after saline 20 ml/kg p.o.; for ED (200% urine output): dose giving urine output of 200 (non-dosed group = 100); for ED (500% urine output): dose giving urine output of 500 (non-dosed group = 100). The data set is classed as in vivo, male Wistar rats. In short, it runs like this: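 Male Wistar rats (7-8 weeks), water withheld 1 h, bladder emptied, drug given subcutaneously; 30 min later 20 ml/kg saline orally. Urine collected 5 h after saline loading in metabolic cages; ED200 and ED500 are doses giving urine output of 200 and 500 relative to non-dosed group at 100.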

Where [6] appears, read: mouse vas deferens, δ, NTI added.

SMILES strings stand for the structures. Structures can show the parent of a compound that is named as a salt. Where two headings read alike, the source gives them in different places.

T2 sequence (P32300 whole entry): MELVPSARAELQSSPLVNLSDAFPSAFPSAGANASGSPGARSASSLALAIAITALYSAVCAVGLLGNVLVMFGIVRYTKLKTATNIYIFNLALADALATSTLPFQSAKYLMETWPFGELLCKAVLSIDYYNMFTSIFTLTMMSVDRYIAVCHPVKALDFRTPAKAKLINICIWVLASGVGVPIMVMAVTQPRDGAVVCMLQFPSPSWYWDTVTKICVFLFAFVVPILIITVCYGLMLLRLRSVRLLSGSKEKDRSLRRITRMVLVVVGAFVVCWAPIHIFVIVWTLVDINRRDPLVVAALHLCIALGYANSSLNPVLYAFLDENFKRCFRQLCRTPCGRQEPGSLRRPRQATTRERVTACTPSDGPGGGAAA
T3 sequence (P33534 whole entry): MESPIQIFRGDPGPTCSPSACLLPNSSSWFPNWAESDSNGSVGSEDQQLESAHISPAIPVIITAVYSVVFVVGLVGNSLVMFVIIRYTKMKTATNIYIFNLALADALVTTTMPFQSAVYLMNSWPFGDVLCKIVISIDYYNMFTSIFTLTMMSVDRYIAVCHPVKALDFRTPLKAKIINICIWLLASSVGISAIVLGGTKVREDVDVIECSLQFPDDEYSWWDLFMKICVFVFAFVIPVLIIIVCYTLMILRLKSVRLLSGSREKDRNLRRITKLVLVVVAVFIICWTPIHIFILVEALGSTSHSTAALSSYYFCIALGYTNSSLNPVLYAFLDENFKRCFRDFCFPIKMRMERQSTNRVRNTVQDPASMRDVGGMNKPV
T1 sequence (P42866 whole entry): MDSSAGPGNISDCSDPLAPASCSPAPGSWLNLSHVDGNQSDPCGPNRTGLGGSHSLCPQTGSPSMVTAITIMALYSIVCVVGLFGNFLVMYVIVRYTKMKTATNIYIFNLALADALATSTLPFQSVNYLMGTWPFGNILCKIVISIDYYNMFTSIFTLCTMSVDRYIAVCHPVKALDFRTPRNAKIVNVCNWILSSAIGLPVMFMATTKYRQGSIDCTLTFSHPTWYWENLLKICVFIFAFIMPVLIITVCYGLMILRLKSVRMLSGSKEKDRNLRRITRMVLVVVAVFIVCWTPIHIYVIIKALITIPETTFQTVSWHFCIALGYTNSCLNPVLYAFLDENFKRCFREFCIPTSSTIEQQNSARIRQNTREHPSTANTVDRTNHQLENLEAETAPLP

Take `CN(Cc1ccccc1)[C@@H]1CC[C@@]2(O)[C@H]3Cc4ccc(O)c5c4[C@@]2(CCN3CC2CC2)[C@H]1O5` [Compound 8, 6β-(N-Benzyl)methylamino-17-cyclopropylmethyl-4,5α-epoxy-3,14β-dihydroxymorphinan]: the “Protective action against cytotoxicity caused by glutamic acid (in words)” value (“Protective action” for short) in data set [1] is reported as “clearly demonstrated action that protects nerve cells from cytotoxicity caused by glutamic acid”. Besides, in data set [2], the EC50 was determined as 5750 nM.

By ED50 is commonly meant the midpoint of the dose-response relation. On to `CN(C(=O)Cc1ccccc1)[C@H]1CC[C@@]2(O)[C@H]3Cc4ccc(O)c5c4[C@@]2(CCN3CC2CC2)[C@H]1O5` [Compound 23, 17-cyclopropylmethyl-3,14β-dihydroxy-4,5α-epoxy-6α-(N-methylphenylacetamido)morphinan.cndot.hydrochloride], for which the ED50 in data set [3] stood at 0.67 mg/kg. Besides, the “Protective action” value in data set [1] is “clearly demonstrated action that protects nerve cells from cytotoxicity caused by glutamic acid”. For the same compound, the EC50 in data set [2] is 1610 nM.

With `CO[C@@H](C(=O)N(C)[C@H]1CC[C@@]2(O)[C@H]3Cc4ccc(O)c5c4[C@@]2(CCN3CC2CC2)[C@H]1O5)c1ccccc1` [Compound 30, 17-cyclopropylmethyl-3,14β-dihydroxy-4,5α-epoxy-6α-[(R)-N-methylmethoxyphenylacetamido]morphinan.cndot.hydrochloride], in data set [1], the “Protective action” value is “clearly demonstrated action that protects nerve cells from cytotoxicity caused by glutamic acid”. The EC50 in data set [2] is 7950 nM.

Take `O=C(Cc1ccc(Cl)c(Cl)c1)N[C@H]1CC[C@@]2(O)[C@H]3Cc4ccc(O)c5c4[C@@]2(CCN3CC2CC2)[C@H]1O5` [Compound 52, 17-cyclopropylmethyl-4,5α-epoxy-3,14β-dihydroxy-6α-(3,4-dichlorophenylacetoamido)morphinan.cndot.hydrochloride]: the “Protective action” value in data set [1] is “clearly demonstrated action that protects nerve cells from cytotoxicity caused by glutamic acid”. Further, in data set [2], the EC50 was 1710 nM.

In general, IC50 refers to the concentration at which inhibition is half-maximal. Read a high IC50 as weaker potency. In turn, `CN(C(=O)/C=C/c1ccoc1)[C@H]1CC[C@@]2(O)[C@H]3Cc4ccc(O)c5c4[C@@]2(CCN3CC2CC2)[C@H]1O5` [Compound 89, 17-cyclopropylmethyl-3,14β-dihydroxy-4,5α-epoxy-6α-[N-methyl-trans-3-(3-furyl)acrylamido]morphinan.cndot.tartrate] showed an IC50 in data set [4] of 0.0934 nM. Also, at μ receptor, the “Ke, Naloxone” value is given as 18.3 nM. On δ receptor, the “Ke, NTI” value was 15.6 nM. Moreover, at κ receptor, the “receptor selectivity of agonist (κ)” value is on record as “selective agonists for κ receptors” and the “Ke, norBNI” value is on record as 0.85 nM. Further, the ED50 in data set [3] came to 0.00471 mg/kg. Besides, in data set [5], the ED (200% urine output) stood at 0.0012 mg/kg and the ED (500% urine output) worked out at 0.0162 mg/kg.

Turning to `CN(C(=O)/C=C/c1cccc(F)c1)[C@H]1CC[C@@]2(O)[C@H]3Cc4ccc(O)c5c4[C@@]2(CCN3CC2CC2)[C@H]1O5` [Compound 96, 17-cyclopropylmethyl-3,14β-dihydroxy-4,5α-epoxy-6α-(N-methyl-3-fluorocinnamamido)morphinan.cndot.tartrate], in data set [4], it took 0.346 nM to reach half-maximal inhibition (IC50). Further, at μ receptor, the “Ke, Naloxone” value came to 32.5 nM. In addition, the “Ke, NTI” value on δ receptor (setting [6]) stood at 1.61 nM. Besides, the “Ke, norBNI” value at κ receptor amounted to 4.21 nM. Moreover, in data set [3], the ED50 was determined as 0.00086 mg/kg. Also, the analgesic activity result in data set [3] (s.c., in words) was “particularly strong analgesic activity”. Besides, in data set [5], the ED (200% urine output) turned out to be 0.0013 mg/kg and the ED (500% urine output) was found to be 0.0549 mg/kg.

For the compound `CN(C(=O)/C=C/c1cccc([N+](=O)[O-])c1)[C@H]1CC[C@@]2(O)[C@H]3Cc4ccc(O)c5c4[C@@]2(CCN3CC2CC2)[C@H]1O5` [Compound 97, 17-cyclopropylmethyl-3,14β-dihydroxy-4,5α-epoxy-6α-(N-methyl-3-nitrocinnamamido)morphinan.cndot.phosphate], in data set [4], the IC50 was found to be 0.247 nM. On μ receptor, the “Ke, Naloxone” value came out at 163 nM. In addition, the “receptor selectivity of agonist (δ)” value on δ receptor (mouse vas deferens, in words) was “selective agonists for δ receptors”. For the same compound, the “Ke, NTI” value on δ receptor (setting [6]) was determined as 2.92 nM. Moreover, the “Ke, norBNI” value on κ receptor was found to be 13.9 nM. Further, in data set [3], the ED50 was determined as 0.0019 mg/kg. Also, in data set [5], the ED (200% urine output) is 0.0045 mg/kg and the ED (500% urine output) is 0.0939 mg/kg.

With `CN(C(=O)Cc1ccc2ccccc2c1)[C@@H]1CC[C@@]2(O)[C@H]3Cc4ccc(O)c5c4[C@@]2(CCN3CC2CC2)[C@H]1O5` [Compound 112, 17-cyclopropylmethyl-3,14β-dihydroxy-4,5α-epoxy-6β-(N-methyl-2-naphthylacetamido)morphinan.cndot.hydrochloride], in data set [1], the “Protective action” value is “clearly demonstrated action that protects nerve cells from cytotoxicity caused by glutamic acid”. In addition, the EC50 in data set [2] worked out at 4240 nM.

Consider `CN(C(=O)Cc1cccc(C(F)(F)F)c1)[C@@H]1CC[C@@]2(O)[C@H]3Cc4ccc(O)c5c4[C@@]2(CCN3CC2CC2)[C@H]1O5` [Compound 116, 17-cyclopropylmethyl-3,14β-dihydroxy-4,5α-epoxy-6β-(N-methyl-3-trifluoromethylphenylacetamido)morphinan.cndot.hydrochloride], for which the “Protective action” value in data set [1] is listed as “clearly demonstrated action that protects nerve cells from cytotoxicity caused by glutamic acid”. Moreover, in data set [2], the EC50 was found to be 2370 nM.

With `CN(CCc1ccc(Cl)c(Cl)c1)[C@H]1CC[C@@]2(O)[C@H]3Cc4ccc(O)c5c4[C@@]2(CCN3CC2CC2)[C@H]1O5` [Compound 135, 17-Cyclopropylmethyl-3,14β-dihydroxy-4,5α-epoxy-6α-[N-methyl-N-2-(3,4-dichlorophenyl)ethylamino]morphinan.cndot.1.8 hydrochloride], the “Protective action” value in data set [1] is “clearly demonstrated action that protects nerve cells from cytotoxicity caused by glutamic acid”. Besides, the EC50 in data set [2] was 290 nM.

With `CN(CCc1ccc(Cl)c(Cl)c1)[C@@H]1CC[C@@]2(O)[C@H]3Cc4ccc(O)c5c4[C@@]2(CCN3CC2CC2)[C@H]1O5` [Compound 136, 17-Cyclopropylmethyl-3,14β-dihydroxy-4,5α-epoxy-6β-[N-methyl-N-2-(3,4-dichlorophenyl)ethylamino]morphinan.cndot.1.9 hydrochloride], the “Protective action” value in data set [1] is “clearly demonstrated action that protects nerve cells from cytotoxicity caused by glutamic acid”. The EC50 in data set [2] was 640 nM.

Consider `CC(=O)Oc1ccc2c3c1O[C@H]1[C@H](N(C)C(=O)/C=C/c4cccc(C(F)(F)F)c4)CC[C@@]4(O)[C@@H](C2)N(CC2CC2)CC[C@]314` [Compound 141, 17-cyclopropylmethyl-3-acetoxy-14β-hydroxy-4,5α-epoxy-6β-(N-methyl-3-trifluoromethylcinnamamido)morphinan.cndot.tartrate], for which the IC50 in data set [4] was 0.16 nM. Moreover, the “Ke, Naloxone” value on μ receptor came out at 142 nM. Moreover, the “Ke, NTI” value on δ receptor (setting [6]) turned out to be 184 nM. Also, at κ receptor, the “receptor selectivity of agonist (κ)” value is given as “selective agonists for κ receptors” and the “Ke, norBNI” value came to 1.39 nM. Moreover, the ED50 in data set [3] amounted to 0.01 mg/kg. In data set [5], this compound gave an ED (200% urine output) of 0.0319 mg/kg and an ED (500% urine output) of 3.45 mg/kg.

In data set [4], `CN(C(=O)CCCc1ccccc1)[C@@H]1CC[C@@]2(O)[C@H]3Cc4ccc(O)c5c4[C@@]2(CCN3CC2CC2)[C@H]1O5` [Compound 150, 17-cyclopropylmethyl-4,5α-epoxy-3,14β-dihydroxy-6β-(N-methyl-4-phenylbutanoylamido)morphinan tartrate] yielded an IC50 of 1.67 nM. At μ receptor, the “Ke, Naloxone” value was 137 nM. Also, the “Ke, NTI” value at δ receptor (setting [6]) is listed as 55.6 nM. Also, at κ receptor, the “receptor selectivity of agonist (κ)” value was “selective agonists for κ receptors” and the “Ke, norBNI” value is recorded as 0.303 nM. Besides, the ED50 in data set [3] was 0.035 mg/kg. Further, in data set [5], the ED (200% urine output) was 0.0429 mg/kg and the ED (500% urine output) was found to be 0.762 mg/kg.

`COc1cccc(C#CC(=O)N(C)[C@@H]2CC[C@@]3(O)[C@H]4Cc5ccc(O)c6c5[C@@]3(CCN4CC3CC3)[C@H]2O6)c1.O=C(O)C(O)C(O)C(=O)O` [Compound 173, 17-cyclopropylmethyl-3,14β-dihydroxy-4,5α-epoxy-6β-[N-methyl-3-(3-methoxyphenyl)propiolamido]morphinan tartrate] gave an IC50 in data set [4] of 0.02 nM. Besides, on μ receptor, the “Ke, Naloxone” value came out at 19.6 nM. Further, the “Ke, NTI” value on δ receptor (setting [6]) amounted to 21.3 nM. In addition, on κ receptor, the “receptor selectivity of agonist (κ)” value was “selective agonists for κ receptors” and the “Ke, norBNI” value was 0.11 nM. Moreover, the ED50 in data set [3] amounted to 0.011 mg/kg. In data set [5], this compound had an ED (200% urine output) of 0.0275 mg/kg and an ED (500% urine output) of 1.55 mg/kg.
